What was measured:
[1] = Ferric reducing antioxidant power (FRAP); type: biochemical; conditions: FRAP reagent pH 3.6, 5 min, 37 °C, 593 nm, n = 3
Description: FRAP was measured using the method adapted from Benzie and Strain [46]. The FRAP reagent was prepared by mixing a 300 mM sodium acetate buffer (pH 3.6), a 10 mM 2,4,6-tripyridyl-s-triazine (TPTZ) solution dissolved in 40 mM HCl, and a 20 mM FeCl3 solution in a 10:1:1 ratio just before the experiment. A 10 μL sample of each concentration was mixed with 200 μL of FRAP reagent, incubated for 5 min at 37 °C, and then the absorbance was measured at 593 nm using a Microplate Spectrophotometer (xMarkTM, BIO-RAD, Hercules, CA, USA). The FRAP value of the sample was determined by applying the absorbance values to a standard calibration curve prepared with 0–5 mM FeSO4·H2O, and the results were expressed as FeSO4 equivalent mM/μM.

[2] = ABTS radical scavenging activity; type: biochemical; conditions: n = 3
Description: The ABTS radical scavenging activity of C. notate head hydrolysate was determined by an adaptation of the ABTS radical cation decolorization assay of Re et al.. A 7 mM ABTS solution and a 2.45 mM potassium persulfate (Sigma Co., Fukushima, Japan) solution were mixed (v/v) to a final concentration and allowed to stand in the dark at room temperature (RT) for 24 h. Afterward, distilled water was added to dilute the solution until the absorbance at 732 nm reached 0.70 (±0.02). Then, 990 μL of this diluted ABTS solution was mixed with 10 μL of the sample solution and incubated at RT for 1 min. The absorbance was measured at 732 nm (Figure 1).

HaCaT cells [3] = experiment: Cell viability (MTT) of H2O2-treated HaCaT cells; type: cell-based, human; conditions: DP 50, 100, 200 μM with H2O2 500 μM, 24 h, n = 3
Description: (§1) The cell line used in the experiment, the HaCaT cell line, a human keratinocyte, was purchased from the Korea Cell Line Bank (KCLB, Seoul, Republic of Korea). HaCaT cells were cultured in a DMEM medium supplemented with 10% FBS and 1% penicillin–streptomycin. The cells were subcultured every 2 to 3 days in an incubator maintained at 37 °C and 5% CO2.
To assess the cytotoxicity of DP and H2O2, cells (1 × 10^4 in a 96-well plate) were cultured at 37 °C and 5% CO2 for 24 h. The cultured cells were then treated with DP and H2O2. After 24 h of treatment, 10 μL of MTT (5 mg/mL) solution was added, and the cells were incubated for 4 h. Following this, the supernatant was removed, and 100 μL of DMSO was added to each well. The absorbance was measured at 550 nm using an ELISA reader.

HaCaT cells [4] = experiment: ROS generation (DCFH-DA) in H2O2-treated HaCaT cells; type: cell-based, human; conditions: DP 50, 100, 200 μM; H2O2 500 μM, 24 h; DCFH-DA 25 μM, 30 min; n = 3
Description: as §1
HaCaT cells were seeded at 1 × 10^4 cells per well in a 96-well black plate and cultured for 24 h. The cultured cells were treated with DP at concentrations of 50, 100, and 200 μM and then exposed to 500 μM H2O2 for 24 h to induce ROS generation. After H2O2 treatment, the cells were stained with 25 μM dichlorodihydro-fluorescein diacetate (DCFH-DA) for 30 min. The fluorescence intensity corresponding to intracellular ROS production was measured using a fluorescent spectrophotometer at an excitation wavelength of 485 nm and an emission wavelength of 530 nm. The results were expressed as ROS production (%) relative to the fluorescence measurement value of the untreated control, which was set to 100.

mushroom tyrosinase = experiment: Tyrosinase inhibitory activity (DOPA chrome formation); type: biochemical; conditions: DL-DOPA substrate, pH 6.8, 37 °C, 10 min, 475 nm
Description: The inhibitory activity of tyrosinase, which is involved in the key steps of melanin synthesis, was measured using a colorimetric method modified from Masamoto et al. by detecting the formation of DOPA chrome as a result of the enzyme’s action. As a substrate, a mixture containing 0.2 mL of 5 mM DL-DOPA solution, 0.2 mL of 0.1 M phosphate buffer (pH 6.8), and 0.5 mL of sample solution was prepared. To this mixture, 0.1 mL of mushroom tyrosinase (Sigma Co., 250 unit/mL) was added and incubated at 37 °C for 10 min. After incubation, the absorbance was measured at a wavelength of 475 nm to calculate the tyrosinase inhibitory activity.

B16F10 melanoma cells [5] = experiment: Cytotoxicity (MTT) in B16F10 melanoma cells; type: cell-based, mouse; conditions: 12.5, 50, and 100 μM, 24 h
Description: (§2) B16F10 melanoma cells were obtained from the KCLB and cultured in DMEM medium supplemented with 10% FBS (Gibco BRL, Grand Island, NY, USA) and 1% penicillin. The cells were incubated in a humidified incubator at 37 °C and 5% CO2.
To determine the cytotoxicity of DP and establish the concentration range for the experiment, an MTT assay was conducted. Cells were seeded in 96-well plates at a density of 1.0 × 10^4 cells/well. After 24 h, once the cells were fully attached, the medium was replaced with fresh medium containing 200 nM α-MSH and various concentrations of DP. After another 24 h of incubation, an MTT assay was performed.

B16F10 melanoma cells [6] = experiment: Melanin content and morphology in α-MSH-induced B16F10 melanoma cells; type: cell-based, mouse; conditions: for Melanin content: α-MSH (200 nM) 24 h, α-MSH treated group 152.36%, 405 nm
Description: as §2
To measure melanin production in B16F10 cells, cells were seeded in 6-well plates at a density of 5 × 10^4 cells/well. After 24 h, the medium was replaced with fresh medium containing 2% FBS, 200 nM α-MSH, and various concentrations of DP. […] After incubation, the cells were washed with PBS, harvested by centrifugation, and the melanin content was visually inspected. The harvested cells were dissolved in 400 μL of 0.2 N NaOH solution and incubated at 60 °C for 1 h. The absorbance was measured at 405 nm using a microplate reader.

MITF mRNA = experiment: RT-PCR of MITF mRNA in α-MSH-stimulated B16F10 cells; type: cell-based, mouse; conditions: 0.1, 1, and 10 μM; α-MSH 200 nM; normalized to GAPDH
Description: as §2
(§3) Total RNA was extracted using the High Pure RNA Isolation Kit (Invitrogen Co., Waltham, MA, USA) according to the manufacturer’s instructions and quantified using a NanoDrop (Thermo Scientific, Waltham, MA, USA). For the reverse transcription reaction, 1 μg of isolated RNA and 1 μL of oligo DT (100 pM) were combined with DEPC to a total volume of 11 μL, followed by the reverse transcription reaction using the RT Premix Kit (Bioneer Co., Daejeon, Republic of Korea) as per the manufacturer’s protocol. PCR for MITF, Tyrosinase, and MC1R genes was conducted using 2 μL of the cDNA products obtained from the reverse transcription reaction, with the PCR Premix Kit (Bioneer Co.) according to the manufacturer’s instructions. The cDNA products amplified by reverse transcription and polymerase chain reaction were analyzed by electrophoresis on 2.0% agarose gels containing ethidium bromide.

tyrosinase mRNA = experiment: RT-PCR of tyrosinase mRNA in α-MSH-stimulated B16F10 cells; type: cell-based, mouse; conditions: 0.1, 1, and 10 μM; α-MSH 200 nM; normalized to GAPDH
Description: as §2, §3

MC1R mRNA = experiment: RT-PCR of MC1R mRNA in α-MSH-stimulated B16F10 cells; type: cell-based, mouse; conditions: 0.1, 1, and 10 μM; α-MSH 200 nM; normalized to GAPDH
Description: as §2, §3

[7] = previous research; cited from earlier work
Excerpt: (§4) This study aims to evaluate the antioxidant and skin-whitening effects of this novel decapeptide (DP) through in vitro and in silico analyses and to establish its potential as a new skin-whitening agent.

tyrosinase = conditions: previous research; cited from earlier work
Excerpt: as §4

Tyrosinase inhibitory activity (mushroom tyrosinase; 62.5 μM): 7.05%
Tyrosinase inhibitory activity (mushroom tyrosinase; 125 μM): 19.62%
Tyrosinase inhibitory activity (mushroom tyrosinase; 250 μM): 26.29%
Tyrosinase inhibitory activity (mushroom tyrosinase; 500 μM): 62.67%
Tyrosinase inhibitory activity (mushroom tyrosinase; 1000 μM): 84.38%
Sequence: KGYSSYICDK [DP]
FRAP activity vs Vitamin C ([1]; 1000 μM, p < 0.05): significant activity at 1000 μM, comparable to Vitamin C
FRAP activity, concentration dependence ([1]; FeSO4 equivalents): dose-dependent FRAP activity
ABTS radical scavenging, concentration dependence ([2]; 732 nm): concentration-dependent ABTS radical scavenging activity
ABTS radical scavenging ([2]; concentrations above 20 μM, 732 nm): over 90%
ABTS radical scavenging vs Vit. C ([2]; concentrations above 20 μM, p < 0.05): significantly outperforming Vit. C
Cell viability of H2O2-treated HaCaT cells (HaCaT cells [3]): enhanced cell viability in a dose-dependent manner
ROS levels in H2O2-treated HaCaT cells (HaCaT cells [4]): significantly reduced
Cytotoxicity in B16F10 melanoma cells (B16F10 melanoma cells [5]): No cytotoxicity was observed
Melanin content (B16F10 melanoma cells [6]; 0.1 μM): 120.32%
Melanin content (B16F10 melanoma cells [6]; 1 μM): 105.24%
Melanin content (B16F10 melanoma cells [6]; 10 μM): 83.21%
Melanin formation, morphological observation (B16F10 melanoma cells [6]; starting from 0.1 μM, α-MSH 200 nM, 200× magnification): melanin formation was inhibited starting from the 0.1 μM concentration
MITF mRNA level (MITF mRNA): dose-dependent and significant decrease
Tyrosinase mRNA level (tyrosinase mRNA): dose-dependent and significant decrease
MC1R mRNA level (MC1R mRNA): dose-dependent and significant decrease
Free radical scavenging activity [7]: free radical scavenging
Tyrosinase inhibitory activity (tyrosinase): tyrosinase inhibitory activities

— publication PMC11355700, “Antioxidant and Skin-Whitening Efficacy of a Novel Decapeptide (DP, [sequence]) Derived from Fish By-Products” (Marine Drugs, 2024)
